Measurements published in publication PMC8039949, “A novel small-molecule PROTAC selectively promotes tau clearance to improve cognitive functions in Alzheimer-like models” (Theranostics, 2021).

Legend:
mRNA level of tau = assay: Tau mRNA level by q-PCR in HEK293-hTau cells; format: cell-based, human; conditions: 20 μM for 24 h
Description: Total RNA was isolated by using Trizol™ kit (Invitrogen, Carlsbad, CA, USA) and the reverse transcription reagent kit (RR037, Takara) was used to obtain cDNA. RT-PCR was performed using a StepOnePlus Real-Time PCR Detection System (AB Applied Biosystems, 272001262, Cossell Biotechnology). The PCR system contains 2 μL forward and reverse primers, 10 μL SYBR Green PCR master mixes, 1 μL cDNA and 7 μL diethylpyrocarbonate (DEPC H2O). The primer of MAPT-forward was CAGCTCCGGCACCAACAG and the MAPT-reverse was […]. The primer of β-actin-forward was […] and β-actin-reverse was […].

tau = tau (Mus musculus, UniProt P10637); assay: Single-dose subcutaneous administration in wild-type mice, brain tau by Western blotting; format: in vivo
Sequence of tau (P10637 114-430 isoform P10637-2 limits assumed): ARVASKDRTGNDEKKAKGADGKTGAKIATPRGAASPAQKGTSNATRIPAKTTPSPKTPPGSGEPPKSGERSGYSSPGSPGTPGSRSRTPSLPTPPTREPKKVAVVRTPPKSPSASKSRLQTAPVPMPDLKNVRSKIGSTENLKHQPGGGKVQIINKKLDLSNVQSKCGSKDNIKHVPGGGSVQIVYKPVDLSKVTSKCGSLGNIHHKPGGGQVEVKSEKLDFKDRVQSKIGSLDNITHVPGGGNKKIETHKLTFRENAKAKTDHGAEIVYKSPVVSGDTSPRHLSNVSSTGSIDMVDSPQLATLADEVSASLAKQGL
Description: For brain surgery and stereotaxic cerebroventricular drug delivery, the mice were placed in a stereotaxic apparatus and anesthetized with 2% isoflurane (RWD Life Science, R510-22) through a nose cone (300-500 mL/min, RWD Life Science, China, R500). The scalp was incised along the midline between the ears after the mice were sterilized with iodophors and 75% (vol/vol) alcohol. The holes were drilled stereotaxically in the skull at a cerebroventricular location (posterior 0.22 mm, lateral 0.9 mm, and ventral 2.3 mm relative to bregma). Using a microinjection system (Shenzhen RWD Life Technology Co., Ltd; RWD 69100), C004019 (5 μL, 200 μM) was infused at a rate of 0.5 μL/min. The needle was kept in place for 10 min before withdrawal. After the skin was sutured, the mice were placed on a heater for analepsia. For subcutaneous injection, C004019 was diluted with 20% HP-β-CD and injected under the skin on the back neck to reach a final concentration of 3 mg/kg (low dose) or 15 mg/kg (high dose).
The cells or hippocampal/cortex tissues were homogenized for ~ 30 min on ice in buffer [50 mM Tris·HCl pH 7.4-7.5, 100 mM NaCl, 1% (vol/vol) Triton X-100, 5 mM EDTA, 1:100 PMSF, 1:1,000 protease inhibitor cocktail containing 4-(2-Aminoethyl)-benzenesulfonyl fluoride hydrochloride, aprotinin, bestatin, leupeptin, E-64, and pepstatin A stored at 4 °C], and then centrifuged at 12,000 × g at 4 °C for 20 min. The supernatant was collected and the protein levels were analyzed using bicinchoninic acid (BCA, KF016, Sigma-Aldrich) by following the manufacturer's instruction (served as soluble protein). The pellet was further incubated with 8% (wt/vol) SDS buffer at 4 °C and then treated by ultrasonic wave to reach a complete resuspension. The suspension was spun (18,000 × g, 4 °C for 20 min) and the supernatant collected (served as insoluble fraction). The supernatant of different faction was respectively mixed with loading buffer (3:1, vol/vol) containing 200 mM Tris-HCl, pH 6.8, 8% SDS, 40% glycerol, and boiled for 10 min. For Western blotting, the proteins were separated by 10% SDS-polyacrylamide gel via electrophoresis for about 2 h and transferred to nitrocellulose membranes ([…]) for 1 h. The membranes were blocked with 5% (wt/vol) BSA dissolved in PBS for 1 h and incubated with primary antibodies overnight at 4 °C in cold room. Membranes were then incubated with a secondary antibody for 1 h at room temperature and visualized using the ECL Imaging System (610007-8Q, Clinx Science Instruments Co., Ltd). Immunoreactive bands were quantitatively analyzed by Image J2x software.

duration of tau reduction in the brain (tau; 4 m-old wild-type mice, single-dose subcutaneous 3 mg/kg): sustained tau reduction till 8 days | tau level in hippocampus and cortex (tau; 4 m-old wild-type mice, subcutaneous 15 mg/kg, 24 h and 48 h): Significant tau reduction | tau reduction (tau; wild-type mice, 8 days after one treatment): 50%
Structure (SMILES): CC(=O)N1CCCN(c2nc(NCCc3cccs3)nc(N(C)CC(=O)NCCOCCOCCOCC(=O)N[C@H](C(=O)N3C[C@H](O)C[C@H]3C(=O)NCc3ccc(-c4scnc4C)cc3)C(C)(C)C)n2)CC1 [C004019]
mRNA level of tau (mRNA level of tau): did not significantly change the mRNA level of tau | tau level in hippocampus and cortex (tau; 4 m-old wild-type mice, subcutaneous 3 mg/kg, 24 h, compared with 15 mg/kg): much more significant tau reduction than that of high dose
